The conditions of the series: for aqueous solubility: pH 6.8.

SMILES strings stand for the structures. In brackets after ≈: the same amount, converted by molar mass. Where only a bound is given, the exact number is not on record here.

As to `COc1cc(CN2CCC(C(=O)N3CCOCC3)CC2)ccc1C`, the MDR1-MDCK efflux ratio amounted to 2.9; the intrinsic clearance, human liver microsomes was determined as 9.42 mL/min/kg; the intrinsic clearance, rat liver microsomes was 228 mL/min/kg.
Regarding `Cc1ccccc1C(=O)N1CCC(O)(Cn2ccnc2C)CC1`, the MDR1-MDCK efflux ratio stood at 4.93; the intrinsic clearance, human liver microsomes is 4.92 mL/min/kg; the intrinsic clearance, rat liver microsomes was determined as 100 mL/min/kg.
In general, aqueous solubility refers to how much of the substance goes into solution per volume. A higher aqueous solubility goes with a readily soluble substance. As to `CCOC(=O)Nc1ccc2c(c1)N(C(=O)CN(CC)CC)c1ccccc1CC2`, the MDR1-MDCK efflux ratio is 21.7; the intrinsic clearance, human liver microsomes worked out at 44.9 mL/min/kg; the intrinsic clearance, rat liver microsomes stood at 360 mL/min/kg; the aqueous solubility was found to be 86.4 µg/mL (≈ 218 µM).
For `O=C1NCCN(C(=O)c2ccncc2)C1c1ccccc1Cl` (configuration not stated), the MDR1-MDCK efflux ratio amounted to 4.46; the fraction unbound, human plasma was 0.753; the fraction unbound, rat plasma worked out at 0.738; the intrinsic clearance, human liver microsomes is ≤ 4.74 mL/min/kg. This compound also had an intrinsic clearance, rat liver microsomes of 93.1 mL/min/kg and an aqueous solubility of 44.2 µg/mL (≈ 140 µM).
Consider `COc1cccc(S(=O)(=O)N2CCOC(c3c(C(N)=O)sc4ncccc34)C2)c1` (configuration not stated), for which the MDR1-MDCK efflux ratio turned out to be 38.2.
Take `CCCN(Cc1ccccc1)C(=O)CC1(N)CCC1`: the MDR1-MDCK efflux ratio amounted to 11.9; the intrinsic clearance, human liver microsomes is ≤ 4.74 mL/min/kg; the intrinsic clearance, rat liver microsomes stood at 725 mL/min/kg; the aqueous solubility worked out at 56.4 µg/mL (≈ 217 µM).
Take `CC(C(O)c1ccc(O)cc1)N1CCC(Cc2ccccc2)CC1` (configuration not stated): the MDR1-MDCK efflux ratio came out at 1.08; the intrinsic clearance, human liver microsomes amounted to 150 mL/min/kg; the intrinsic clearance, rat liver microsomes came to 960 mL/min/kg; the aqueous solubility amounted to 51.7 µg/mL (≈ 159 µM).
On to `Fc1cccc(Cl)c1CNCCc1c[nH]c2ccccc12`, for which the MDR1-MDCK efflux ratio stood at 0.457; the intrinsic clearance, human liver microsomes turned out to be 298 mL/min/kg; the intrinsic clearance, rat liver microsomes worked out at 2150 mL/min/kg; the aqueous solubility is 48.3 µg/mL (≈ 159 µM).
Turning to `O=C(Nc1ccccc1)N1CCCc2cnc(N3CCOCC3)nc21`, the MDR1-MDCK efflux ratio came out at 1.22; the intrinsic clearance, human liver microsomes was ≤ 4.74 mL/min/kg; the intrinsic clearance, rat liver microsomes was 116 mL/min/kg; the aqueous solubility is 5.86 µg/mL (≈ 17.3 µM).
On to `O=C(O)C1CN(Cc2ccc(OCc3ccc(Cl)c(Cl)c3)cc2)C1`, for which the MDR1-MDCK efflux ratio was determined as 4.1; the intrinsic clearance, human liver microsomes was ≤ 4.74 mL/min/kg; the intrinsic clearance, rat liver microsomes is ≤ 10.7 mL/min/kg.
As to `C#CCN1CCN(C(=O)CCS(C)(=O)=O)CC1`, the intrinsic clearance, human liver microsomes is ≤ 4.74 mL/min/kg; the intrinsic clearance, rat liver microsomes was ≤ 10.7 mL/min/kg; the aqueous solubility came out at 73.8 µg/mL (≈ 285 µM).
With `O=C(CCCC(=O)N1CCN(c2nsc3ccccc23)CC1)Nc1nccs1`, the MDR1-MDCK efflux ratio was 11.2; the intrinsic clearance, human liver microsomes worked out at 73.7 mL/min/kg; the intrinsic clearance, rat liver microsomes came out at 512 mL/min/kg.
Turning to `CC(C)Oc1cccc(C(C)NC(=O)c2ccnc(-n3cncn3)c2)c1` (configuration not stated), the MDR1-MDCK efflux ratio was found to be 1.81; the intrinsic clearance, human liver microsomes came out at 70.8 mL/min/kg; the intrinsic clearance, rat liver microsomes worked out at 258 mL/min/kg.
For `CN(C)c1cnn(CCC(C#N)(c2ccccc2)c2ccccc2)c(=O)c1`, the MDR1-MDCK efflux ratio was found to be 2.74; the intrinsic clearance, human liver microsomes was determined as 124 mL/min/kg; the intrinsic clearance, rat liver microsomes came to 1260 mL/min/kg; the aqueous solubility turned out to be 22.2 µg/mL (≈ 62 µM).
Take `CN(C)S(=O)(=O)N1CCC(c2ccc3c(NCc4ccccc4F)n[nH]c3n2)CC1`: the MDR1-MDCK efflux ratio was 3.07 and the aqueous solubility is 0.15 µg/mL (≈ 0.347 µM).
For `CC(C)(C)c1[nH]cnc1/C=c1\[nH]c(=O)/c(=C/c2ccccc2)[nH]c1=O`, the MDR1-MDCK efflux ratio is 7.19; the intrinsic clearance, human liver microsomes is ≤ 4.74 mL/min/kg; the intrinsic clearance, rat liver microsomes came out at 146 mL/min/kg.
In the case of `CCN(CC(N)=O)CC(=O)N1c2ccccc2CCc2ccccc21`, the MDR1-MDCK efflux ratio amounted to 28.9; the intrinsic clearance, human liver microsomes is 40.9 mL/min/kg; the intrinsic clearance, rat liver microsomes was found to be 674 mL/min/kg.

(Values after the Biogen ADME set (Fang et al. 2023).)
